Source: US12589025B2, “Intraocular devices, systems, and methods” (Sight Sciences, Inc., priority 2021, dated 2026)

Design: species or system Yucatan pigs
Settings: pig, in vivo
Description: Poly(lactic-co-glycolic acid) (PLGA) implants comprising bimatoprost were implanted into the eyes of 3 month old Yucatan pigs (6 pigs total). Prior to delivering the implant to either the sclera (fully intrascleral; “intrascleral arm”) or partially in the limbus (one end residing in the limbus, one end residing in the sclera; “limbal arm”), the pigs were placed under general anesthesia, and a lid speculum was inserted. Intraocular pressure was checked, and corneal thickness was checked in 4 quadrants, and centrally, using ultrasonic corneal pachymetry. The lid speculum was then removed.
In each of the 6 pigs, the right eye received one implant, and the left eye received 2 implants. In order to accomplish this, betadine drops were placed onto the left eyes of each pig and an eyelid speculum is inserted. A surgical operating microscope was positioned to visualize the implantation. Each eye was infraducted with a traction suture. A small conjunctival peritomy was created, and the sclera was marked with gentian violet-tipped calipers 2 mm posterior to the limbus. 10-0 nylon marking sutures were then placed 3-4 mm posterior to the limbus. A 27 G needle on a TB syringe was used to preform a tunnel for implantation toward the anterior chamber (group 1) or across the sclera (group 2). The implant was then deployed into the preformed tunnel, and the traction suture was released. Polymyxin-trimethoprim and tobramycin-dexamethasone drops were then placed in each eye, and the speculum was removed. The procedure was then repeated with two implants in each pig's […] eye.
At month 1, the pigs were examined, and one pig from each group was euthanized and the eyes were removed and placed in formalin for pathology. Aqueous samples from each of the 6 pigs were collected and analyzed for the presence of bimatoprost and Bimatoprost Acid (a metabolite of bimatoprost). At weeks 3, 10, and 20, the remaining pigs in each group were examined for redness, inflammation, eye rubbing, miosis, and squinting, as above.
At month 3, the remaining pigs were examined and aqueous samples collected (as above), and one of the remaining pigs from each group was euthanized (as above) for pathology.
The histopathology of the eyes is evaluated, as is the concentration of bimatoprost, and metabolites thereof, in the anterior chambers. The concentrations of bimatoprost and the bimatoprost acid metabolite in the anterior chamber of each pig's eyes are shown in FIGS. 24A-24D, at the time points described above. FIG. 24A and FIG. 24B show the concentrations of bimatoprost and the bimatoprost acid metabolite, respectively, for the three pigs (A1, A2, and A6) implanted with the intrascleral implant. […]

SMILES | Bimatoprost Acid concentration, limbal arm compared to intrascleral arm | presence of Bimatoprost Acid (metabolite of bimatoprost) in aqueous samples | bimatoprost aqueous levels, limbal arm compared to intrascleral arm | presence of bimatoprost in the aqueous humor
O=C(O)CCC/C=C\C[C@@H]1[C@@H](/C=C/[C@@H](O)CCc2ccccc2)[C@H](O)C[C@@H]1O [Bimatoprost Acid] | higher concentration in the limbal arm | detectable | – | –
CCNC(=O)CCC/C=C\C[C@@H]1[C@@H](/C=C/[C@@H](O)CCc2ccccc2)[C@H](O)C[C@@H]1O [bimatoprost] | – | – | both higher and more sustained aqueous levels in the limbal arm | detectable
